Entries after “also recorded” stand apart in the source; their conditions may differ. One block for each substance: values may come before it.
How the values were obtained:
Format in all cases: cell-based
IL-2 promoter [1] = assay: IL-2 promoter luciferase reporter gene assay in Jurkat T cells; conditions: PMA and ionomycin
IL-2 promoter [2] = assay: IL-2 promoter activation in T cells expressing calcineurin mutant; conditions: expressed in T cells
[3] = target: T1, interaction between Cabin 1-14 and full length calcineurin β2 (H160N) (Homo sapiens, UniProt P16298, H160N); assay: mammalian two-hybrid assay in Jurkat T cells (luciferase reporter); conditions: Jurkat T cells, PMA/ionomycin stimulated, drug added 30 min prior to stimulation
T1 construct: expressed in transfected cells; host or cells: Jurkat T cells
Source text: A mammalian two-hybrid system was established in Jurkat T cells by fusing calcineurin with the Gal4 DNA binding domain and Cabin 1-14 with the VP16 activation domain (Hsu et al., Proc. Natl. Acid Sci. USA 91:3181-3185 (1994)). The fusion plasmids for mammalian two-hybrid assays were constructed as follows: The cDNAs of calcineurin Aβ2 wild type and H160N mutant were fused to the GAL4 DB in the pM vector (obtained from Clontech, Palo Alto, Calif.) (pMCNβ2 and PMCNβ2 (H160N), and the cDNA of Cabin 1-14 was fused to the VP16 AD in the pVP16 vector (pVPCabin 1-14). Jurkat T cells were transfected with 5 μg of pMCβ2 or pMCβ2 (H160N), 5 μg of pVPCabin 1-14, 1 μg of pCMV-βGal, and 2 μg of pg5Luc, a luciferase reporter plasmid containing GAL4 promoter, by electroporation (960 μF, 250V). After 48 hr, cells were stimulated with 40 nM PMA and 2.5 μM ionomycin, either alone or in combination, for 6 hr before luciferase activity was measured for each sample. The luciferase reporter gene assay reagents were obtained from Promega, Madison, Wis., and the assay was performed per manufacturer's instructions. […] Where appropriate, the transfection efficiency was measured by co-transfecting 2 μg of CMV-driven β-galactosidase expression vector and measuring enzymatic β-galactosidase activity (Ausubel et al., Current Protocols in Molecular Biology (John Wiley & Sons, Inc., New York, 1994)).

Substance: Cabin 1: isolated calcineurin binding polypeptide, amino acid sequence SEQ ID NO:1, 2220 amino acids
effect on IL-2 reporter gene activation (IL-2 promoter [1]): lower potency | effect on IL-2 reporter gene activation (IL-2 promoter [1]; listed as Cabin1): inhibit

Substance: H 160N: catalytically inactive mutant of the β2 isoform of calcineurin, used as bait
blocking of PMA and ionomycin-stimulated IL-2 promoter activation (IL-2 promoter [2]): over 60%

Substance: bisindolylmaleimide
sensitivity of interaction between full length calcineurin β2 (H160N) and Cabin 1-14 to drug [3]: inhibited the interaction between calcineurin and Cabin 1-14 in a dose-dependent manner; also recorded: sensitive

sensitivity of interaction between full length calcineurin β2 (H160N) and Cabin 1-14 to drug [3]: sensitive
Substance: cyclosporin A [CsA]

Reference: patent US6686450B1, “Immunosuppressive agents that inhibit calcineurin function and uses of these agents” (Massachusetts Institute of Technology, priority 1998, dated 2004)
